Experimental data taken from a compilation of properties of binary mixtures (doi:10.1016/j.molliq.2022.121176).

Test: xn = mol fraction of the nth substance listed
Conditions: 298 K, 101.3 kPa

Which electrical conductivity (x2 = 0.25) does the source give for `II` + CCCCCCCCCCCC[n+]1ccn(C)c1.[I-] here?
Its electrical conductivity is 1.39 S/m.

For `II` + CCCCCC[n+]1ccn(C)c1.[I-], which electrical conductivity (x2 = 0.2) is on record?
The electrical conductivity was 3.89 S/m.

What about the electrical conductivity (x2 = 0.25) of the same molecule?
Its electrical conductivity is 2.93 S/m.

What about the electrical conductivity (x2 = 0.333) of the same molecule?
Its electrical conductivity is 1.96 S/m.

What about the electrical conductivity (x2 = 0.5) of the same molecule?
The electrical conductivity was 0.429 S/m.

For `II` + CCCC[n+]1ccn(C)c1.[I-], which electrical conductivity (x2 = 0.2) is on record?
The electrical conductivity was 5.13 S/m.

What about the electrical conductivity (x2 = 0.25) of the same molecule?
The electrical conductivity was 4.31 S/m.

What about the electrical conductivity (x2 = 0.5) of the same molecule?
Its electrical conductivity is 0.735 S/m.

With `CCCCCC[n+]1ccn(C)c1.[I-]` + II as the molecule, how does the electrical conductivity (x1 = 1) read?
The electrical conductivity was 0.0186 S/m.

For `CCCC[n+]1ccn(C)c1.[I-]` + II, which electrical conductivity (x1 = 1) is on record?
Its electrical conductivity is 0.035 S/m.

What does the source list for `CC[n+]1ccn(C)c1.[I-]` + II?
electrical conductivity (x1 = 0.2): 7.17 S/m; electrical conductivity (x1 = 0.25): 6.5 S/m; viscosity (x1 = 0.25): 18.8 mPa·s; electrical conductivity (x1 = 0.333): 5.08 S/m

Which results are given for `C=CCn1cc[n+](C)c1.[I-]` + II?
electrical conductivity (x1 = 0.2): 4.07 S/m; electrical conductivity (x1 = 0.333): 3.82 S/m
